Assay results as given in article PMC11645267, “Novel pharmacologic inhibition of lysine-specific demethylase 1 as a potential therapeutic for glioblastoma” (Cancer Gene Therapy, 2024).

What was measured:
Type in all cases: cell-based
GSC1228 = experiment: Cell proliferation assay (CellTiter-Glo 3D); conditions: GSC1228, 96 h; read-out: Growth inhibitory IC50 (GI50)
Experimental: (§1) Supplementary materials and methods […]
(§2) Cell lines and culture conditions […]
(§3) 2013 #1009}{Katsushima, 2016 #1156}. GSC cells were cultured in Neurobasal Medium (Life Technologies, Carlsbad, CA, USA) containing N2 and B27 supplements (Life Technologies) along with human recombinant basic fibroblast growth factor and epidermal growth factor (20 ng/ml each; R&D Systems, Minneapolis, MN, USA). Cells were cultured at 37°C in a humidified incubator with 5% CO2.
(§4) For the cell proliferation assay, cells at a density of 1 × 10^5 cells per well were seeded before treatment with LSD1 inhibitors. Cell proliferation was measured after 4 days using a Cell Counting Kit 8 (Dojindo, Kumamoto, Japan) according to the manufacturer ’s […]
(§5) instructions. For GSC cells, the CellTiter-Glo 3D Viability Assay (Promega, Madison, WI, USA) was used to measure the living cells. […]

GSC222 = experiment: Cell proliferation assay (CellTiter-Glo 3D); conditions: GSC222, 96 h; read-out: Growth inhibitory IC50 (GI50)
Experimental: as §1, §2, §3, §4, §5

GSC316 = experiment: Cell proliferation assay (CellTiter-Glo 3D); conditions: GSC316, 96 h; read-out: Growth inhibitory IC50 (GI50)
Experimental: as §1, §2, §3, §4, §5

F3 = experiment: Western blot of global histone modifications; conditions: F3, 5 μM, 96 h
Experimental: The effects of S2172 on global histone modifications in GSCs were examined using western blot analysis. GSC cells were treated with 5 μM of S2172 since […] of the cells are still viable at this concentration (Fig. 2, Supplementary Fig. S1E). […] Treatment of GSCs with S2172 increased the overall levels of H3K4me2 as well as H3K9me2. However, these changes were not statistically significant (Fig. 2A, B). […]
instructions. For GSC cells, the CellTiter-Glo 3D Viability Assay (Promega, Madison, WI, USA) was used to measure the living cells. All proliferation experiments were repeated […]
The density of bands was quantified using ImageJ software (https://imagej.nih.gov/ij/). […]
When mice were scanned with MRI, mice were anesthetized with isoflurane (3% in air) and placed in MRS 3017 Benchtop MRI Systems (MR Solutions, Guildford, UK). Using MRI images, tumor volumes were obtained by compiling tumor areas from all slices that contained tumors and calculated by ImageJ software (https://imagej.nih.gov/ij/) {Towner, […]
A. Left panel: Western blot analysis of H3K4me1, H3K4me2, H3K4me3, and H3K9me2 after treatment with either DMSO or S2172 5μM for 96 h in normal neural stem cell F3 . […] Right panel: Quantification of signal intensities of the Western blot. […]
C. […] Right panel: Quantification of band signal intensities from the Western blot. […]

Q: `NC1CCC(NC2CC2c2cc(F)cc(F)c2OCc2ccccc2)CC1` (stereo not shown) [S2172] was tested. Which IC50 (GSC1228) did it give?
A: 12.5 µM

Q: What about the IC50 (GSC222) of the same molecule?
A: 17 µM

Q: What about the IC50 (GSC316) of the same molecule?
A: 12 µM

Q: And the “changes in the levels of H3K4me1, H3K4me2, H3K4me3, and H3K9me2” value (F3)?
A: not significant
